These results are taken from patent publication US20130288980A1, “TARGETING SENESCENT AND CANCER CELLS FOR SELECTIVE KILLING BY INTERFERENCE WITH FOXO4” (Buck Institute for Research on Aging, priority 2012, published 2013).

The test system of one assay is FOXO4. Nature of the assay: FOXO4 knockdown by lentiviral short hairpins: FOXO4 mRNA (QPCR) and punctate FOXO4 staining after 10Gy XRAY. The assay is classed as cell-based, human. The settings on record: HCA2 fibroblasts, 8 days after 10Gy XRAY. As to the method: FIG. 1A: 3×10^6 Normal Human IMR90 fibroblasts were plated in 6 cm dishes and the next day exposed to 10Gy ionizing radiation (XRAY) or left untreated. At the indicated time-points protein samples were prepared by collecting the cells in 1× Laemli Sample buffer. The indicated proteins were detected by western blot using antibodies against FOXO4 (#9472, Cell Signaling), FOXO3a (#07-702, Upstate/Millipore) and Tubulin (B-5-1-2, Sigma-Aldrich). FIG. 1B: 10^4 Normal human HCA2 fibroblasts were plated in 96-well plates in triplicate per condition and the next day exposed to 10Gy ionizing radiation (XRAY) or left untreated. At the indicated time-points mRNA and subsequent cDNA samples were collected using the Cells-to-Ct kit from Ambion according to the manufacturer's instructions. Real-time QPCR was subsequently performed using the Universal Probe Library system from Roche with the following primers/probe combinations: For FOXO4: Probe 18, FOXO4-fwd: 5′-[…]-3′, FOXO4-Rev: 5′-[…]-3′. For Tubulin: Probe 58, Tubulin-Fwd: 5′-[…]-3′ and Tubulin-Rev 5′-[…]-3′. Changes in mRNA expression were calculated using the ΔΔCT method. FIG. 1C: 2×10^5 IMR90 fibroblasts were plated on glass coverslips and the next day exposed to 10Gy ionizing radiation (XRAY) or left untreated. […]

In the next assay the test system is A375 melanoma cells. Nature of the assay: A375-shGFP versus A375-shFOXO4 sensitivity to chemotherapeutic agents (MTS). The class given is cell-based, human. How it is done: FIG. 12A: 2×10^4 A375-shGFP or A375-shFOXO4-2 cells were plated in triplicate in 96-well plate chambers. The next day the cells were incubated with the indicated concentrations of PLX4032 or left untreated. After 6 days the a CellTiter 96® AQueous One Solution Cell Proliferation Assay (MTS) was performed according to the manufacturer's instructions (Promega) to determine the relative number of cells versus Mock treated A375-shGFP or A375-shFOXO4-2 melanoma cells (Left panel). Additionally, in a separate experiment the cells were refreshed at day 7 with the same dose of PLX4032 and left for another 4 days after which the same procedure was performed. FIG. 12B: Similar experiment as in A), except with the general RAF inhibitor RAF265. FIG. 12C: Similar experiment as in A), except with the MEK inhibitor AZD6244.

Assay [1] deals with BRAFV600E-driven melanoma cells such as A375. The following applies: Sala et al. 2008; cited from earlier work.
The subject of the next assay is metastatic melanoma. The settings on record: patients with metastatic melanoma; Bollag 2010, Sosman 2012; cited from earlier work.
The subject of assay [2] is BRAFV600E-mutated A375 malignant melanoma cells. The assay is described as follows: Cytochrome C release in shFOXO4-infected A375 cells treated with PLX4032. The class given is cell-based, human. The following applies: shFOXO4 versus control hairpin; PLX4032 0.5, 2 and 10 μM.
Protocol: FIG. 9B: BRAF^V600E-mutated A375 malignant melanoma cells were infected as in FIG. 2a and selected for 3 days with 1 μg/ml Puromycin. Subsequently 2×10^4 cells were plated in triplicate on glass coverslips in 24-well plate chambers. The next day the cells were incubated with the indicated concentrations of the BRAF^V600E-inhibitor PLX4032 in the presence of 20 μM of the general caspase-inhibitor Q-VD-OPH. After 5 days the cells were processed as in FIG. 2b for Cytochrome C staining and the percentage of cells with Cytochrome C release was quantified.

Entries after “also recorded” stand apart in the source; their conditions may differ.

5′-CCAGCTTCAGTCAGCAGTTAT-3′ [shFOXO4-1]: the “knockdown of FOXO4 mRNA and reduction in punctate FOXO4 staining” value in the assay with FOXO4 was “induce knockdown of FOXO4 mRNA and reduction in punctate FOXO4”.

As to 5′-CGTCCACGAAGCAGTTCAAAT-3′ [shFOXO4-2], the “knockdown of FOXO4 mRNA and reduction in punctate FOXO4 staining” value with FOXO4 was “induce knockdown of FOXO4 mRNA and reduction in punctate FOXO4”.

As for `Cn1cnc2c(F)c(Nc3ccc(Br)cc3Cl)c(C(=O)NOCCO)cc21` [AZD6244], the “sensitivity of A375-shFOXO4 compared with A375-shGFP cells to the drug” value with A375 melanoma cells was “more sensitive”.

As for `N.N.[Cl][Pt][Cl]` [Cisplatin], the “sensitivity of A375-shFOXO4 compared with A375-shGFP cells to the drug” value with A375 melanoma cells is “more sensitive”.

Turning to `CCCS(=O)(=O)Nc1ccc(F)c(C(=O)c2c[nH]c3ncc(-c4ccc(Cl)cc4)cc23)c1F` [PLX4032], the apoptosis entry in assay [1] is “trigger apoptosis”. In addition, the “sensitivity of A375-shFOXO4 compared with A375-shGFP cells to the drug” value in the assay on A375 melanoma cells is on record as “more sensitive”. Also, the tumor-free survival rates entry with metastatic melanoma is recorded as “Major improvements in tumor-free survival rates”. For the same compound, the “sensitivity to PLX4032 on FOXO4 knockdown (Cytochrome C release)” value in assay [2] is given as “strongly sensitized; also recorded: Increased sensitivity”.

Regarding `Cn1c(Nc2ccc(C(F)(F)F)cc2)nc2cc(Oc3ccnc(-c4ncc(C(F)(F)F)[nH]4)c3)ccc21` [RAF265], the “sensitivity of A375-shFOXO4 compared with A375-shGFP cells to the drug” value in the assay with A375 melanoma cells is given as “more sensitive”.
